≈ marks a conversion by molar mass, not a printed value.
Key:
Aspergillus fumigatus [1] = assay: Antifungal activity against Aspergillus fumigatus infected in neutropenic rat assessed as survival of rat at 4 mg/kg/day, ip administered 16 hrs post infection for 10 days; assay type: functional; settings: route intraperitoneal
Aspergillus fumigatus [2] = assay: Antifungal activity against Aspergillus fumigatus infected in neutropenic rat assessed as survival of rat at 4 mg/kg/day, ip administered 24 hrs post infection for 10 days; assay type: functional; settings: route intraperitoneal
Aspergillus fumigatus [3] = assay: Antifungal activity against Aspergillus fumigatus infected in neutropenic rat assessed as survival of rat at 4 mg/kg/day, ip administered 72 hrs post infection for 10 days; assay type: functional; settings: route intraperitoneal
Aspergillus fumigatus [4] = assay: Antifungal activity against Aspergillus fumigatus infected in neutropenic rat assessed as survival of rat at 10 mg/kg/day, ip administered 72 hrs post infection for 10 days; assay type: functional; settings: route intraperitoneal
[5] = AUC in neutropenic rat at 10 mg/kg/day after 3 days; assay type: ADME, organism-based; settings: plasma
[6] = AUC in neutropenic rat at 10 mg/kg/day for 3 days followed by 4 mg/kg/day for 7 days measured after 10 days; assay type: ADME, organism-based; settings: plasma
Rattus norvegicus [7] = assay: Renal toxicity in neutropenic rat assessed as creatine level in serum at 4 mg/kg/day, ip administered 72 hrs post infection for 10 days measured on day 6 after infection (Rvb=34.8+/-5.8 umol/l); assay type: organism-based; parameters: route intraperitoneal; settings: in vivo
Rattus norvegicus [8] = assay: Renal toxicity in neutropenic rat assessed as creatine level in serum at 10 mg/kg/day, ip administered 72 hrs post infection for 3 days followed by 4 mg/kg/day, ip for 7 days measured on day 6 after infection (Rvb=34.8+/-5.8 umol/l); assay type: organism-based; settings: in vivo
Rattus norvegicus [9] = assay: Renal toxicity in neutropenic rat assessed as […] in serum at 10 mg/kg/day, ip administered 72 hrs post infection for 10 days measured on day 6 after infection (Rvb=34.8+/-5.8 umol/l); assay type: organism-based; parameters: route intraperitoneal; settings: in vivo
Rattus norvegicus [10] = assay: Renal toxicity in neutropenic rat assessed as creatine level in serum at 4 mg/kg/day, ip administered 72 hrs post infection for 10 days measured on day 13 after infection (Rvb=26.7+/-6.1 umol/l); assay type: organism-based; parameters: route intraperitoneal; settings: in vivo
Rattus norvegicus [11] = assay: Renal toxicity in neutropenic rat assessed as […] in serum at 10 mg/kg/day, ip administered 72 hrs post infection for 3 days followed by 4 mg/kg/day, ip for 7 days measured on day 13 after infection (Rvb=26.7+/-6.1 umol/l); assay type: organism-based; settings: in vivo
Rattus norvegicus [12] = assay: Renal toxicity in neutropenic rat assessed as creatine level in serum at 10 mg/kg/day, ip administered 72 hrs post infection for 10 days measured on day 13 after infection (Rvb=26.7+/-6.1 umol/l); assay type: organism-based; parameters: route intraperitoneal; settings: in vivo
Rattus norvegicus [13] = assay: Renal toxicity in neutropenic rat assessed as blood urea nitrogen level in serum at 4 mg/kg/day, ip administered 72 hrs post infection for 10 days measured on day 6 after infection (Rvb=4.4+/-0.5 mmol/l); assay type: organism-based; parameters: route intraperitoneal; settings: in vivo
Rattus norvegicus [14] = assay: Renal toxicity in neutropenic rat assessed as blood urea nitrogen level in serum at 10 mg/kg/day, ip administered 72 hrs post infection for 3 days followed by 4 mg/kg/day, ip for 7 days measured on day 6 after infection (Rvb=4.4+/-0.5 mmol/l); assay type: organism-based; settings: in vivo
Rattus norvegicus [15] = assay: Renal toxicity in neutropenic rat assessed as blood urea nitrogen level in serum at 10 mg/kg/day, ip administered 72 hrs post infection for 10 days measured on day 6 after infection (Rvb=4.4+/-0.5 mmol/l); assay type: organism-based; parameters: route intraperitoneal; settings: in vivo
Rattus norvegicus [16] = assay: Renal toxicity in neutropenic rat assessed as blood urea nitrogen level in serum at 4 mg/kg/day, ip administered 72 hrs post infection for 10 days measured on day 13 after infection (Rvb=5.8+/-0.4 mmol/l); assay type: organism-based; parameters: route intraperitoneal; settings: in vivo
Rattus norvegicus [17] = assay: Renal toxicity in neutropenic rat assessed as blood urea nitrogen level in serum at 10 mg/kg/day, ip administered 72 hrs post infection for 3 days followed by 4 mg/kg/day, ip for 7 days measured on day 13 after infection (Rvb=5.8+/-0.4 mmol/l); assay type: organism-based; settings: in vivo
Rattus norvegicus [18] = assay: Renal toxicity in neutropenic rat assessed as blood urea nitrogen level in serum at 10 mg/kg/day, ip administered 72 hrs post infection for 10 days measured on day 13 (Rvb=5.8+/-0.4 mmol/l); assay type: organism-based; parameters: route intraperitoneal; settings: in vivo
Rattus norvegicus [19] = assay: Hepatotoxicity in neutropenic rat assessed as ALAT level in serum at 4 mg/kg/day, ip administered 72 hrs post infection for 10 days measured on day 6 after infection (Rvb=43.9+/-7.9 U/l); assay type: toxicity, organism-based; parameters: route intraperitoneal; settings: in vivo
Rattus norvegicus [20] = assay: Hepatotoxicity in neutropenic rat assessed as ALAT level in serum at 10 mg/kg/day, ip administered 72 hrs post infection for 3 days followed by 4 mg/kg/day, ip for 7 days measured on day 6 after infection (Rvb=43.9+/-7.9 U/l); assay type: toxicity, organism-based; settings: in vivo
Rattus norvegicus [21] = assay: Hepatotoxicity in neutropenic rat assessed as ALAT level in serum at 4 mg/kg/day, ip administered 72 hrs post infection for 10 days measured on day 13 after infection (Rvb=51.3+/-5.2 U/l); assay type: toxicity, organism-based; parameters: route intraperitoneal; settings: in vivo
Rattus norvegicus [22] = assay: Hepatotoxicity in neutropenic rat assessed as ALAT level in serum at 10 mg/kg/day, ip administered 72 hrs post infection for 3 days followed by 4 mg/kg/day, ip for 7 days measured on day 13 after infection (Rvb=51.3+/-5.2 U/l); assay type: toxicity, organism-based; settings: in vivo
Rattus norvegicus [23] = assay: Hepatotoxicity in neutropenic rat assessed as ALAT level in serum at 10 mg/kg/day, ip administered 72 hrs post infection for 10 days measured on day 13 after infection (Rvb=51.3+/-5.2 U/l); assay type: toxicity, organism-based; parameters: route intraperitoneal; settings: in vivo
Rattus norvegicus [24] = assay: Hepatotoxicity in neutropenic rat assessed as ASAT level in serum at 4 mg/kg/day, ip administered 72 hrs post infection for 10 days measured on day 6 after infection (Rvb=51.2+/-9.4 U/l); assay type: toxicity, organism-based; parameters: route intraperitoneal; settings: in vivo
Rattus norvegicus [25] = assay: Hepatotoxicity in neutropenic rat assessed as ASAT level in serum at 10 mg/kg/day, ip administered 72 hrs post infection for 3 days followed by 4 mg/kg/day, ip for 7 days measured on day 6 after infection (Rvb=51.2+/-9.4 U/l); assay type: toxicity, organism-based; settings: in vivo
Rattus norvegicus [26] = assay: Hepatotoxicity in neutropenic rat assessed as ASAT level in serum at 10 mg/kg/day, ip administered 72 hrs post infection for 10 days measured on day 6 after infection (Rvb=51.2+/-9.4 U/l); assay type: toxicity, organism-based; parameters: route intraperitoneal; settings: in vivo
Rattus norvegicus [27] = assay: Hepatotoxicity in neutropenic rat assessed as ASAT level in serum at 4 mg/kg/day, ip administered 72 hrs post infection for 10 days measured on day 13 after infection (Rvb=46.6+/-6.1 U/l); assay type: toxicity, organism-based; parameters: route intraperitoneal; settings: in vivo
Rattus norvegicus [28] = assay: Hepatotoxicity in neutropenic rat assessed as ASAT level in serum at 10 mg/kg/day, ip administered 72 hrs post infection for 3 days followed by 4 mg/kg/day, ip for 7 days measured on day 13 after infection (Rvb=46.6+/-6.1 U/l); assay type: toxicity, organism-based; settings: in vivo
Rattus norvegicus [29] = assay: Hepatotoxicity in neutropenic rat assessed as ASAT level in serum at 10 mg/kg/day, ip administered 72 hrs post infection for 10 days measured on day 13 after infection (Rvb=46.6+/-6.1 U/l); assay type: toxicity, organism-based; parameters: route intraperitoneal; settings: in vivo
Aspergillus fumigatus [30] = assay: Antifungal activity against Aspergillus fumigatus by CLSI method; assay type: functional
Aspergillus fumigatus [31] = assay: Antifungal activity against Aspergillus fumigatus by Etest method; assay type: functional
Rattus norvegicus [32] = assay: Hepatotoxicity in neutropenic rat assessed as ALAT level in serum at 10 mg/kg/day, ip administered 72 hrs post infection for 10 days measured on day 6 after infection (Rvb=43.9+/-7.9 U/l); assay type: toxicity, organism-based; parameters: route intraperitoneal; settings: in vivo

**Q.** Which Activity (Aspergillus fumigatus [1]) does the source give for `CC[C@H](C)C[C@H](C)CCCCCCCCC(=O)N[C@H]1C[C@@H](O)[C@@H](NCCN)NC(=O)[C@@H]2[C@@H](O)CCN2C(=O)[C@H]([C@H](O)CCN)NC(=O)[C@H]([C@H](O)[C@@H](O)c2ccc(O)cc2)NC(=O)[C@@H]2C[C@@H](O)CN2C(=O)[C@H]([C@@H](C)O)NC1=O` [CASPOFUNGIN] here?
**A.** 100%

**Q.** And the Activity (Aspergillus fumigatus [2])?
**A.** 93%

**Q.** And the Activity (Aspergillus fumigatus [3])?
**A.** 27%

**Q.** What about the Activity (Aspergillus fumigatus [4]) of the same compound?
**A.** 67%

**Q.** What about the AUC at 72 h [5] of the same compound?
**A.** 549 µg·h/mL

**Q.** And the AUC at 240 h [6]?
**A.** 114 µg·h/mL

**Q.** And the Activity (Rattus norvegicus [7])?
**A.** 44.3 µmol/L

**Q.** And the Activity (Rattus norvegicus [8])?
**A.** 36.5 µmol/L

**Q.** And the Activity (Rattus norvegicus [9])?
**A.** 42 µmol/L

**Q.** What about the Activity (Rattus norvegicus [10]) of the same compound?
**A.** 24 µmol/L

**Q.** What about the Activity (Rattus norvegicus [11]) of the same compound?
**A.** 31 µmol/L

**Q.** What about the Activity (Rattus norvegicus [12]) of the same compound?
**A.** 28.4 µmol/L

**Q.** What about the Activity (Rattus norvegicus [13]) of the same compound?
**A.** 12.2 mmol/L

**Q.** And the Activity (Rattus norvegicus [14])?
**A.** 5.9 mmol/L

**Q.** And the Activity (Rattus norvegicus [15])?
**A.** 10.9 mmol/L

**Q.** And the Activity (Rattus norvegicus [16])?
**A.** 15.7 mmol/L

**Q.** And the Activity (Rattus norvegicus [17])?
**A.** 6.9 mmol/L

**Q.** And the Activity (Rattus norvegicus [18])?
**A.** 11.4 mmol/L

**Q.** And the Activity (Rattus norvegicus [19])?
**A.** 41.4 U/L

**Q.** And the Activity (Rattus norvegicus [20])?
**A.** 61.6 U/L

**Q.** What about the Activity (Rattus norvegicus [21]) of the same compound?
**A.** 94.2 U/L

**Q.** What about the Activity (Rattus norvegicus [22]) of the same compound?
**A.** 50.5 U/L

**Q.** And the Activity (Rattus norvegicus [23])?
**A.** 36.4 U/L

**Q.** And the Activity (Rattus norvegicus [24])?
**A.** 118 U/L

**Q.** And the Activity (Rattus norvegicus [25])?
**A.** 49.3 U/L

**Q.** What about the Activity (Rattus norvegicus [26]) of the same compound?
**A.** 113 U/L

**Q.** What about the Activity (Rattus norvegicus [27]) of the same compound?
**A.** 138.4 U/L

**Q.** What about the Activity (Rattus norvegicus [28]) of the same compound?
**A.** 50.2 U/L

**Q.** What about the Activity (Rattus norvegicus [29]) of the same compound?
**A.** 68 U/L

**Q.** And the MIC (Aspergillus fumigatus [30])?
**A.** 8 µg/mL (≈ 7.32 µM)

**Q.** And the MIC (Aspergillus fumigatus [31])?
**A.** 0.05 µg/mL (≈ 0.0457 µM)

**Q.** And the Activity (Rattus norvegicus [32])?
**A.** 31.5 U/L

— ChEMBL document CHEMBL1255278, “Caspofungin prolongs survival of transiently neutropenic rats with advanced-stage invasive pulmonary aspergillosis” (Antimicrob Agents Chemother, 2008)
